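These data come from cells grown in 96-well plates and exposed to compound for 48 hours at five concentrations. GI50 = concentration required for 50% inhibition of growth.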 Calls of active or inactive are those of the source. Rule as the data show it: active = GI50 up to about 1.1 µM and inactive = higher.
Assays:
Experiment in all cases: NCI tumour cell line growth inhibition, 48 h
NCI-H460 = system: NCI-H460
SNB-19 = system: SNB-19
OVCAR-8 = system: OVCAR-8
DMS-114 = system: DMS-114
IGROV-1 = system: IGROV-1
DMS-273 = system: DMS-273
M19-MEL = system: M19-MEL
HOP-62 = system: HOP-62
HOP-92 = system: HOP-92
SK-MEL-28 = system: SK-MEL-28
NCI-H226 = system: NCI-H226
SK-OV-3 = system: SK-OV-3
CCRF-CEM = system: CCRF-CEM
SNB-78 = system: SNB-78
A498 = system: A498
UACC-62 = system: UACC-62
A549 = system: A549
HT-29 = system: HT-29
SF-268 = system: SF-268
MOLT-4 = system: MOLT-4
EKVX = system: EKVX
HL-60 = system: HL-60
SR = system: SR
HCT-116 = system: HCT-116
TK-10 = system: TK-10
UACC-257 = system: UACC-257
NCI-H23 = system: NCI-H23
RXF 393 = system: RXF 393
NCI-H522 = system: NCI-H522
UO-31 = system: UO-31
U-251 = system: U-251
KM12 = system: KM12
M14 = system: M14
OVCAR-5 = system: OVCAR-5
RPMI-8226 = system: RPMI-8226
SF-295 = system: SF-295
LOX IMVI = system: LOX IMVI
LXFL 529 = system: LXFL 529
DLD-1 = system: DLD-1
SN12C = system: SN12C
SK-MEL-2 = system: SK-MEL-2
K562 = system: K562
ACHN = system: ACHN
SK-MEL-5 = system: SK-MEL-5
KM-20L2 = system: KM-20L2
HCC 2998 = system: HCC 2998
SF-539 = system: SF-539
Malme-3M = system: Malme-3M
HCT-15 = system: HCT-15
SW-620 = system: SW-620
CAKI-1 = system: CAKI-1
SNB-75 = system: SNB-75
OVCAR-4 = system: OVCAR-4
786-0 = system: 786-0
PC-3 = system: PC-3
MDA-N = system: MDA-N
NCI/ADR-RES = system: NCI/ADR-RES
COLO 205 = system: COLO 205
MDA-MB-231 = system: MDA-MB-231
T47D = system: T47D
OVCAR-3 = system: OVCAR-3
MDA-MB-435 = system: MDA-MB-435
DU-145 = system: DU-145
Hs-578T = system: Hs-578T
BT-549 = system: BT-549
MCF7 = system: MCF7

COc1ccc(OC)c2c(=O)c3ccccc3[nH]c12
GI50 (NCI-H460): 38.9 µM (inactive)
GI50 (SNB-19): 96.6 µM (inactive)
GI50 (OVCAR-8): 19.3 µM (inactive)
GI50 (DMS-114): 66.8 µM (inactive)
GI50 (IGROV-1): > 100 µM (inactive)
GI50 (DMS-273): 62.5 µM (inactive)
GI50 (M19-MEL): > 100 µM (inactive)
GI50 (HOP-62): > 100 µM (inactive)
GI50 (HOP-92): 37.1 µM (inactive)
GI50 (SK-MEL-28): > 100 µM (inactive)
GI50 (NCI-H226): 66.5 µM (inactive)
GI50 (SK-OV-3): > 100 µM (inactive)
GI50 (CCRF-CEM): > 100 µM (inactive)
GI50 (SNB-78): 49.7 µM (inactive)
GI50 (A498): 69.3 µM (inactive)
GI50 (UACC-62): 43.6 µM (inactive)
GI50 (A549): 47 µM (inactive)
GI50 (HT-29): 45.6 µM (inactive)
GI50 (SF-268): 54.3 µM (inactive)
GI50 (MOLT-4): 47.9 µM (inactive)
GI50 (EKVX): > 100 µM (inactive)
GI50 (HL-60): 48.3 µM (inactive)
GI50 (SR): 41.1 µM (inactive)
GI50 (HCT-116): 44.2 µM (inactive)
GI50 (TK-10): > 100 µM (inactive)
GI50 (UACC-257): 4.44 µM (inactive)
GI50 (NCI-H23): 41.7 µM (inactive)
GI50 (RXF 393): 41.2 µM (inactive)
GI50 (NCI-H522): 82.8 µM (inactive)
GI50 (UO-31): 30.9 µM (inactive)
GI50 (U-251): 54.1 µM (inactive)
GI50 (KM12): 57.8 µM (inactive)
GI50 (M14): 74.8 µM (inactive)
GI50 (OVCAR-5): 70.1 µM (inactive)

CC(=O)/C=C1\CC(=O)Nc2ccccc2N1
GI50 (NCI-H460): > 100 µM (inactive)
GI50 (RPMI-8226): > 100 µM (inactive)
GI50 (SNB-19): > 100 µM (inactive)
GI50 (SF-295): > 100 µM (inactive)
GI50 (LOX IMVI): > 100 µM (inactive)
GI50 (OVCAR-8): > 100 µM (inactive)
GI50 (DMS-114): > 100 µM (inactive)
GI50 (IGROV-1): > 100 µM (inactive)
GI50 (LXFL 529): > 100 µM (inactive)
GI50 (DLD-1): > 100 µM (inactive)
GI50 (SN12C): > 100 µM (inactive)
GI50 (HOP-92): > 100 µM (inactive)
GI50 (SK-MEL-28): > 100 µM (inactive)
GI50 (SK-MEL-2): > 100 µM (inactive)
GI50 (NCI-H226): > 100 µM (inactive)
GI50 (SK-OV-3): > 100 µM (inactive)
GI50 (K562): > 100 µM (inactive)
GI50 (CCRF-CEM): 2.79 µM (inactive)
GI50 (SNB-78): > 100 µM (inactive)
GI50 (A498): > 100 µM (inactive)
GI50 (UACC-62): > 100 µM (inactive)
GI50 (ACHN): > 100 µM (inactive)
GI50 (A549): > 100 µM (inactive)
GI50 (HT-29): > 100 µM (inactive)
GI50 (SK-MEL-5): > 100 µM (inactive)
GI50 (SF-268): > 100 µM (inactive)
GI50 (KM-20L2): > 100 µM (inactive)
GI50 (EKVX): > 100 µM (inactive)
GI50 (HL-60): > 100 µM (inactive)
GI50 (HCT-116): > 100 µM (inactive)
GI50 (HCC 2998): > 100 µM (inactive)
GI50 (TK-10): > 100 µM (inactive)
GI50 (SF-539): > 100 µM (inactive)
GI50 (Malme-3M): > 100 µM (inactive)
GI50 (UACC-257): > 100 µM (inactive)
GI50 (HCT-15): > 100 µM
GI50 (NCI-H23): > 100 µM (inactive)
GI50 (RXF 393): > 100 µM (inactive)
GI50 (SW-620): > 100 µM (inactive)
GI50 (UO-31): > 100 µM (inactive)
GI50 (CAKI-1): > 100 µM (inactive)
GI50 (U-251): > 100 µM (inactive)
GI50 (SNB-75): > 100 µM (inactive)
GI50 (KM12): > 100 µM (inactive)
GI50 (OVCAR-4): > 100 µM (inactive)
GI50 (786-0): > 100 µM (inactive)
GI50 (M14): > 100 µM (inactive)
GI50 (OVCAR-5): > 100 µM (inactive)

O=c1cc(/N=N\c2ccc(Cl)c(Cl)c2)[nH]c(=O)[nH]1
GI50 (PC-3): 5.74 µM (inactive)
GI50 (NCI-H460): 2.47 µM (inactive)
GI50 (MDA-N): 1.8 µM (inactive)
GI50 (NCI/ADR-RES): 1.85 µM (inactive)
GI50 (RPMI-8226): 2.14 µM (inactive)
GI50 (SNB-19): 12.1 µM (inactive)
GI50 (SF-295): 15.3 µM (inactive)
GI50 (COLO 205): 1.81 µM (inactive)
GI50 (LOX IMVI): 1.76 µM (inactive)
GI50 (OVCAR-8): 2.21 µM (inactive)
GI50 (IGROV-1): 1.57 µM (inactive)
GI50 (MDA-MB-231): 1.85 µM (inactive)
GI50 (HOP-62): 6.43 µM (inactive)
GI50 (SN12C): 2.11 µM (inactive)
GI50 (HOP-92): 1.59 µM (inactive)
GI50 (T47D): 2.56 µM (inactive)
GI50 (SK-MEL-28): 1.73 µM (inactive)
GI50 (SK-MEL-2): 5.2 µM (inactive)
GI50 (NCI-H226): 15.1 µM (inactive)
GI50 (SK-OV-3): 15.8 µM (inactive)
GI50 (K562): 0.977 µM (active)
GI50 (CCRF-CEM): 0.033 µM (active)
GI50 (A498): 15.3 µM (inactive)
GI50 (UACC-62): 2.01 µM (inactive)
GI50 (ACHN): 1.62 µM (inactive)
GI50 (A549): 15.3 µM (inactive)
GI50 (HT-29): 1.73 µM (inactive)
GI50 (OVCAR-3): 2.36 µM (inactive)
GI50 (MDA-MB-435): 6.55 µM (inactive)
GI50 (SK-MEL-5): 4.89 µM (inactive)
GI50 (SF-268): 2.88 µM (inactive)
GI50 (MOLT-4): 1.97 µM (inactive)
GI50 (EKVX): 1.6 µM (inactive)
GI50 (HL-60): 0.292 µM (active)
GI50 (SR): 0.337 µM (active)
GI50 (HCT-116): 1.75 µM (inactive)
GI50 (HCC 2998): 2.45 µM (inactive)
GI50 (TK-10): 1.78 µM (inactive)
GI50 (SF-539): 2.61 µM (inactive)
GI50 (Malme-3M): 2.23 µM (inactive)
GI50 (UACC-257): 2.38 µM (inactive)
GI50 (HCT-15): 1.72 µM
GI50 (DU-145): 2.94 µM (inactive)
GI50 (NCI-H23): 3.89 µM (inactive)
GI50 (Hs-578T): 2.57 µM (inactive)
GI50 (RXF 393): 1.77 µM (inactive)
GI50 (SW-620): 1.86 µM (inactive)
GI50 (NCI-H522): 1.07 µM (active)
GI50 (UO-31): 2.07 µM (inactive)
GI50 (CAKI-1): 2.07 µM (inactive)
GI50 (U-251): 1.87 µM (inactive)
GI50 (SNB-75): 9.62 µM (inactive)
GI50 (KM12): 2.26 µM (inactive)
GI50 (OVCAR-4): 2.91 µM (inactive)
GI50 (786-0): 1.51 µM (inactive)
GI50 (BT-549): 2.21 µM (inactive)
GI50 (M14): 1.93 µM (inactive)
GI50 (MCF7): 1.64 µM (inactive)
GI50 (OVCAR-5): 4.85 µM (inactive)

From ChEMBL document CHEMBL1201862, “PubChem BioAssay data set” (2004)
